#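 How tested: cells in 96-well plates exposed to compound for 48 hours at five concentrations. GI50 marks 50% less growth.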 Calls of active or inactive are those of the source. Cut-off read from the data, not from the text of the source: active = GI50 up to about 1.1 µM and inactive = higher.
# What was measured:
# Assay in all cases: NCI tumour cell line growth inhibition, 48 h
# [1] = test system: DMS-273
# [2] = test system: HCT-116
# [3] = test system: MOLT-4
# [4] = test system: ACHN
# [5] = test system: SN12C
# [6] = test system: UACC-62
# [7] = test system: K562
# [8] = test system: RPMI-8226
# [9] = test system: EKVX
# [10] = test system: HL-60
# [11] = test system: TK-10
# [12] = test system: SNB-75
# [13] = test system: SK-MEL-2
# [14] = test system: HOP-62
# [15] = test system: HOP-18
# [16] = test system: UO-31
# [17] = test system: IGROV-1
# [18] = test system: HT-29
# [19] = test system: A549
# [20] = test system: OVCAR-4
# [21] = test system: OVCAR-5
# [22] = test system: LOX IMVI
# [23] = test system: SNB-19
# [24] = test system: M14
# [25] = test system: OVCAR-3
# [26] = test system: LXFL 529
# [27] = test system: NCI-H226
# [28] = test system: M19-MEL
# [29] = test system: HCC 2998
# [30] = test system: COLO 205
# [31] = test system: NCI-H460
# [32] = test system: SF-268
# [33] = test system: HOP-92
# [34] = test system: SR
# [35] = test system: SK-MEL-28
# [36] = test system: HCT-15
# [37] = test system: CCRF-CEM
# [38] = test system: KM-20L2
# [39] = test system: RXF 393
# [40] = test system: KM12
# [41] = test system: SNB-78
# [42] = test system: SK-MEL-5
# [43] = test system: NCI-H23
# [44] = test system: UACC-257
# [45] = test system: U-251
# [46] = test system: SW-620
# [47] = test system: OVCAR-8
# [48] = test system: DMS-114
# [49] = test system: DLD-1
# [50] = test system: 786-0
# [51] = test system: SF-295
# [52] = test system: SF-539
# [53] = test system: NCI-H522
# [54] = test system: Malme-3M
# [55] = test system: SK-OV-3
# [56] = test system: A498
smiles,measurement,setting,value
NCc1ccccc1-c1c2nc(c(-c3ccccc3CN)c3ccc([nH]3)c(-c3ccccc3CN)c3nc(c(-c4ccccc4CN)c4ccc1[nH]4)C=C3)C=C2,GI50,[1],7.36 µM (inactive)
same,GI50,[2],13.7 µM (inactive)
same,GI50,[3],> 10 µM (inactive)
same,GI50,[4],16.4 µM (inactive)
same,GI50,[5],18.7 µM (inactive)
same,GI50,[6],24.9 µM (inactive)
same,GI50,[7],14.5 µM (inactive)
same,GI50,[8],12.4 µM (inactive)
same,GI50,[9],23.8 µM (inactive)
same,GI50,[10],14.5 µM (inactive)
same,GI50,[11],27.5 µM (inactive)
same,GI50,[12],5.96 µM (inactive)
same,GI50,[13],24.7 µM (inactive)
same,GI50,[14],22.1 µM (inactive)
same,GI50,[15],1.18 µM (inactive)
same,GI50,[16],18.5 µM (inactive)
same,GI50,[17],23.7 µM (inactive)
same,GI50,[18],28.2 µM (inactive)
same,GI50,[19],22.1 µM (inactive)
same,GI50,[20],19.4 µM (inactive)
same,GI50,[21],13.9 µM (inactive)
same,GI50,[22],19.7 µM (inactive)
same,GI50,[23],18.6 µM (inactive)
same,GI50,[24],21 µM (inactive)
same,GI50,[25],16.2 µM (inactive)
same,GI50,[26],22.1 µM (inactive)
same,GI50,[27],13.9 µM (inactive)
same,GI50,[28],22.2 µM (inactive)
same,GI50,[29],25.9 µM (inactive)
same,GI50,[30],29.8 µM (inactive)
same,GI50,[31],19.1 µM (inactive)
same,GI50,[32],20.8 µM (inactive)
same,GI50,[33],7.08 µM (inactive)
same,GI50,[34],> 10 µM (inactive)
same,GI50,[35],19 µM (inactive)
same,GI50,[36],22 µM
same,GI50,[37],4.17 µM (inactive)
same,GI50,[38],19.7 µM (inactive)
same,GI50,[39],13.1 µM (inactive)
same,GI50,[40],20 µM (inactive)
same,GI50,[41],16.7 µM (inactive)
same,GI50,[42],22.9 µM (inactive)
same,GI50,[43],21.8 µM (inactive)
same,GI50,[44],20.3 µM (inactive)
same,GI50,[45],18.5 µM (inactive)
same,GI50,[46],34.1 µM (inactive)
same,GI50,[47],37 µM (inactive)
CCCCC(/C=N/NC(=N)N)CC.Cc1cc(O)c(C(C)C)cc1S(=O)(=O)O,GI50,[1],38 µM (inactive)
same,GI50,[2],43.3 µM (inactive)
same,GI50,[3],36.1 µM (inactive)
same,GI50,[4],56.6 µM (inactive)
same,GI50,[48],24.5 µM (inactive)
same,GI50,[5],97.5 µM (inactive)
same,GI50,[49],> 100 µM (inactive)
same,GI50,[6],84.1 µM (inactive)
same,GI50,[7],26.5 µM (inactive)
same,GI50,[8],38.8 µM (inactive)
same,GI50,[9],30.8 µM (inactive)
same,GI50,[10],8.85 µM (inactive)
same,GI50,[11],61.7 µM (inactive)
same,GI50,[12],54 µM (inactive)
same,GI50,[14],39.7 µM (inactive)
same,GI50,[16],59.8 µM (inactive)
same,GI50,[50],> 100 µM (inactive)
same,GI50,[17],92.9 µM (inactive)
same,GI50,[19],65.8 µM (inactive)
same,GI50,[51],42.5 µM (inactive)
same,GI50,[22],57.1 µM (inactive)
same,GI50,[52],87.5 µM (inactive)
same,GI50,[23],60 µM (inactive)
same,GI50,[24],36.2 µM (inactive)
same,GI50,[25],37.2 µM (inactive)
same,GI50,[26],70.8 µM (inactive)
same,GI50,[53],> 100 µM (inactive)
same,GI50,[27],18.2 µM (inactive)
same,GI50,[28],48.3 µM (inactive)
same,GI50,[29],17.5 µM (inactive)
same,GI50,[30],18.2 µM (inactive)
same,GI50,[31],46.6 µM (inactive)
same,GI50,[32],> 100 µM (inactive)
same,GI50,[34],21.9 µM (inactive)
same,GI50,[35],40.6 µM (inactive)
same,GI50,[36],85.7 µM
same,GI50,[37],56.2 µM (inactive)
same,GI50,[38],45.7 µM (inactive)
same,GI50,[39],24.9 µM (inactive)
same,GI50,[40],52.4 µM (inactive)
same,GI50,[41],84.7 µM (inactive)
same,GI50,[43],35 µM (inactive)
same,GI50,[44],41.3 µM (inactive)
same,GI50,[45],33.4 µM (inactive)
same,GI50,[46],27 µM (inactive)
same,GI50,[47],> 100 µM (inactive)
same,GI50,[54],43.9 µM (inactive)
same,GI50,[55],59.8 µM (inactive)
CSC(=S)N(C)NC(=O)c1cccc(C(=O)NN(C)C(=S)SC)n1,GI50,[1],14.1 µM (inactive)
same,GI50,[2],36.3 µM (inactive)
same,GI50,[3],4.33 µM (inactive)
same,GI50,[4],> 100 µM (inactive)
same,GI50,[48],1.36 µM (inactive)
same,GI50,[5],22.2 µM (inactive)
same,GI50,[49],27.2 µM (inactive)
same,GI50,[6],14.3 µM (inactive)
same,GI50,[7],15.6 µM (inactive)
same,GI50,[8],10.3 µM (inactive)
same,GI50,[9],16.1 µM (inactive)
same,GI50,[10],5.7 µM (inactive)
same,GI50,[12],34.3 µM (inactive)
same,GI50,[14],17.1 µM (inactive)
same,GI50,[15],78.5 µM (inactive)
same,GI50,[56],28.2 µM (inactive)
same,GI50,[50],19.4 µM (inactive)
same,GI50,[17],8.2 µM (inactive)
same,GI50,[18],3.06 µM (inactive)
same,GI50,[19],14.8 µM (inactive)
same,GI50,[20],10.3 µM (inactive)
same,GI50,[51],3.44 µM (inactive)
same,GI50,[21],4.88 µM (inactive)
same,GI50,[22],31.4 µM (inactive)
same,GI50,[52],24.5 µM (inactive)
same,GI50,[23],26.4 µM (inactive)
same,GI50,[24],14.6 µM (inactive)
same,GI50,[26],10.4 µM (inactive)
same,GI50,[53],15.2 µM (inactive)
same,GI50,[27],25.9 µM (inactive)
same,GI50,[28],31 µM (inactive)
same,GI50,[30],> 100 µM (inactive)
same,GI50,[31],6.11 µM (inactive)
same,GI50,[32],6.1 µM (inactive)
same,GI50,[33],21.5 µM (inactive)
same,GI50,[34],4.97 µM (inactive)
same,GI50,[35],15.4 µM (inactive)
same,GI50,[36],25.9 µM
same,GI50,[37],2.96 µM (inactive)
same,GI50,[38],4.07 µM (inactive)
same,GI50,[39],25.7 µM (inactive)
same,GI50,[40],2.89 µM (inactive)
same,GI50,[41],27.7 µM (inactive)
same,GI50,[42],15.7 µM (inactive)
same,GI50,[43],24.2 µM (inactive)
same,GI50,[44],7.48 µM (inactive)
same,GI50,[45],18.6 µM (inactive)
same,GI50,[46],32.7 µM (inactive)
same,GI50,[47],21.8 µM (inactive)
